Assay results published in paper PMC9501810, “Bitter Peptides YFYPEL, [sequence], and [sequence], Released during Gastric Digestion of Casein, Stimulate Mechanisms of Gastric Acid Secretion via Bitter Taste Receptors TAS2R16 and TAS2R38” (Journal of Agricultural and Food Chemistry, 2022).

How the values were obtained:
HGT-1 cells = assay: Proton secretion assay (intracellular proton index IPX, SNARF-1-AM); type: cell-based, human; conditions: for ΔIPX (change in intracellular proton index vs untreated cells): 10 min incubation in KRHB, mean ± SEM, n = 4–8
Method: The measurement of proton secretion from HGT-1 cells represents a well-established model for the identification of bitter compounds. By affecting extraoral bitter taste receptors with bitter compounds, a modulatory effect on proton secretion can be measured. For this purpose, cells were washed with KRHB and incubated with 3 μM of the intracellular pH indicator 1,5 carboxy-seminaphto-rhodafluor acetoxymethyl ester (SNARF-1-AM) under standard conditions. After 30 min, the cells were washed again with KRHB and then incubated with casein (0.01–10 μM equimolar related to the relevant forms αS1- and β-casein), hydrolysate (0.01–10 μM), or the peptides (0.01–200 μM). […] All substances were dissolved and diluted in KRHB. 1 mM histamine was used as a positive control. Measurements were performed using FlexStation 3 (Molecular Devices, USA). The excitation wavelength was 488 nm, and the emission wavelengths were 580 and 640 nm. For calibration (pH range 7.0–8.0), the intracellular and extracellular pH was adjusted with 2 μM nigericin in potassium buffer (20 mM NaCl, 110 mM KCl, 1 mM CaCl2, 1 mM MgSO4, 18 mM D-glucose, and 20 mM HEPES). The intracellular proton index (IPX) was calculated as the log2 value of the 580/640 ratio and compared with cells without treatment. Negative values represent increased secretion of protons and therefore stimulation of mechanisms regulating gastric acid secretion in HGT-1 cells. In contrast, positive values represent an inhibition of secretion compared to the untreated control.

pepsin = assay: In vitro gastric digestion of casein with targeted UHPLC-MS/MS-MRM quantitation of peptides; type: in vitro ADME, porcine; conditions: 37 °C, n = 4; for degradation of the peptide during further in vitro gastric digestion: SGF pH 3 with pepsin, up to 6 h
Method: The in vitro digestion was based on the Nature protocol established by Brodkorb et al.([30]) For this, simulated salivary fluid (SSF, containing 15.1 mM KCl, 3.7 mM KH2PO4, 13.6 mM NaHCO3, 0.15 mM MgCl2(H2O)6, 0.06 mM (NH4)2CO3, 1.1 mM HCl, and 1.5 mM CaCl2(H2O)2) and simulated gastric fluid (SGF, containing 6.9 mM KCl, 0.9 mM KH2PO4, 25.0 mM NaHCO3, 47.2 mM NaCl, 0.12 mM MgCl2(H2O)6, 0.5 mM (NH4)2CO3, 15.6 mM HCl, and 0.15 mM CaCl2(H2O)2) were prepared. A total amount of 100 mg casein was suspended in 3 mL of SSF and incubated for 5 min at 37 °C in the tube rotator. After taking a sample (500 μL, t = 0 h), 2 mL of SGF was added and the pH was adjusted to 3 with 100 μL of HCl (1 M). After addition of 125 μL of pepsin solution (80,000 U/mL in 10 mM HCl), 275 μL of H2O was added to fill up to 5 mL. This was followed by further incubation at 37 °C in a tube rotator for 6 h. 500 μL of samples was taken at 0.25, 0.5, 0.75, 1, 2, 3, 4, 5, and 6 h, respectively. The samples were frozen in liquid nitrogen and stored at −80 °C until further analysis. For MS experiments, all samples were diluted 1:1 with 10% MeCN.
All targeted proteomics LC–MS/MS measurements were performed using a Sciex ExionLC AC (Sciex, Darmstadt, Germany) coupled to a 6500+ QTrap LC–MS/MS system (Sciex, Darmstadt, Germany) operating in the positive electrospray ionization mode. Data acquisition and instrumentation control were performed with AnalystTF software (v 1.7.1; Sciex, Darmstadt, Germany). Separation was performed using a 100 × 2.1 mm, 1.7 μm, Kinetex C18 column (Phenomenex, Aschaffenburg, Germany) with a guard column of the same type with 0.1% aqueous formic acid and acetonitrile containing 0.1% formic acid at a flow rate of 0.25 mL/min. The gradient was based on the following scheme: 0 min, 15% B; 7 min, 40% B; 7.5 min, 98% B; 10.5 min, 98% B; 10.8 min, 15% B; and 15 min, 15% B. The column oven temperature was set at 40 °C, and the injection volume was 1 μL per sample. For MS/MS measurements, the same parameters were used for all samples (ion spray voltage […], source temperature 450 °C, nebulizing gas 60 psi, and heating gas 30 psi). Nitrogen was set to 35 psi and served as a curtain gas to effectively dissolve the ions. To optimize the parameters DP, CE, and collision cell exit potential for each peptide and transition (Supporting Information Table-SI 2), standard solutions of the five synthesized peptides were injected directly into the MS ion source. Ionization parameters were optimized in positive ESI mode using AnalystTF software (v 1.7.1; Sciex, Darmstadt, Germany). For the preparation of the calibration curves, five peptides were dissolved individually in D2O (600 μL) and the concentration of the stock solutions was determined by qNMR.[35] For each peptide, seven calibration solutions (0.5, 1, 5, 10, 50, 100, and 200 μM) were diluted in 5% MeCN from these stock solutions. The data were analyzed using MultiQuant software (v 3.0.3; Sciex, Darmstadt, Germany).

Caco-2 cell monolayers = conditions: Caco-2; cited from earlier work
Source text: In addition, transport through Caco-2 cell monolayers was ...

[1] = Solubility of casein in the proton secretion assay; type: physicochemical; conditions: casein in KRHB, concentrations above 10 µM could not be investigated

highest concentration released during in vitro digestion (pepsin; 100 mg casein, SSF then SGF pH 3 with pepsin, 0–6 h, mean)	degradation of the peptide during further in vitro gastric digestion (pepsin)	Substance	concentrations at which a significant ΔIPX was found (HGT-1 cells; tested 0.01–200 µM, 10 min)	transport through Caco-2 cell monolayers (Caco-2 cell monolayers)	ΔIPX (change in intracellular proton index vs untreated cells) (HGT-1 cells; 5 µM, positive = inhibited proton secretion)	ΔIPX (change in intracellular proton index vs untreated cells) (HGT-1 cells; 10 µM, negative = stimulated, positive = inhibited proton secretion)	change in mean IPX (HGT-1 cells; casein concentrations below 5 µM (0.01–<5 µM, equimolar related to αS1- and β-casein))	solubility [1]	ΔIPX (change in intracellular proton index vs untreated cells) (HGT-1 cells; 0.1 µM, IPX = log2 of 580/640 ratio, negative = stimulated proton secretion)
up to 148.7 μM	not further degraded	PVVVPPFLQPEVM	at 1 and 10 μM only	transport through Caco-2 cell monolayers was observed	–	–	–	–	–
–	–	casein	–	–	+0.212 ± 0.029	+0.441 ± 0.037	No significant change	poor solubility	–
–	no noticeable degradation	YYVPLGTQ [bitter casein peptide αS1-CN165–172]	–	–	–	–	–	–	−0.166 ± 0.017
